Assay results from ChEMBL document CHEMBL3758139, “Novel thiol-based histone deacetylase inhibitors bearing 3-phenyl-1H-pyrazole-5-carboxamide scaffold as surface recognition motif: Design, synthesis and SAR study” (Bioorg Med Chem Lett, 2016).

Legend:
Histone deacetylase 1 = Histone deacetylase 1 (Homo sapiens, UniProt Q13547); assay: Inhibition of recombinant human HDAC1
Histone deacetylase = assay: Inhibition of HDAC in human HeLa nuclear extract; format: protein assay
[1] = molecular target: T1, Protein deacetylase HDAC6 (Homo sapiens, UniProt Q9UBN7); assay: Inhibition of recombinant human HDAC6
T1 sequence (Q9UBN7 whole entry): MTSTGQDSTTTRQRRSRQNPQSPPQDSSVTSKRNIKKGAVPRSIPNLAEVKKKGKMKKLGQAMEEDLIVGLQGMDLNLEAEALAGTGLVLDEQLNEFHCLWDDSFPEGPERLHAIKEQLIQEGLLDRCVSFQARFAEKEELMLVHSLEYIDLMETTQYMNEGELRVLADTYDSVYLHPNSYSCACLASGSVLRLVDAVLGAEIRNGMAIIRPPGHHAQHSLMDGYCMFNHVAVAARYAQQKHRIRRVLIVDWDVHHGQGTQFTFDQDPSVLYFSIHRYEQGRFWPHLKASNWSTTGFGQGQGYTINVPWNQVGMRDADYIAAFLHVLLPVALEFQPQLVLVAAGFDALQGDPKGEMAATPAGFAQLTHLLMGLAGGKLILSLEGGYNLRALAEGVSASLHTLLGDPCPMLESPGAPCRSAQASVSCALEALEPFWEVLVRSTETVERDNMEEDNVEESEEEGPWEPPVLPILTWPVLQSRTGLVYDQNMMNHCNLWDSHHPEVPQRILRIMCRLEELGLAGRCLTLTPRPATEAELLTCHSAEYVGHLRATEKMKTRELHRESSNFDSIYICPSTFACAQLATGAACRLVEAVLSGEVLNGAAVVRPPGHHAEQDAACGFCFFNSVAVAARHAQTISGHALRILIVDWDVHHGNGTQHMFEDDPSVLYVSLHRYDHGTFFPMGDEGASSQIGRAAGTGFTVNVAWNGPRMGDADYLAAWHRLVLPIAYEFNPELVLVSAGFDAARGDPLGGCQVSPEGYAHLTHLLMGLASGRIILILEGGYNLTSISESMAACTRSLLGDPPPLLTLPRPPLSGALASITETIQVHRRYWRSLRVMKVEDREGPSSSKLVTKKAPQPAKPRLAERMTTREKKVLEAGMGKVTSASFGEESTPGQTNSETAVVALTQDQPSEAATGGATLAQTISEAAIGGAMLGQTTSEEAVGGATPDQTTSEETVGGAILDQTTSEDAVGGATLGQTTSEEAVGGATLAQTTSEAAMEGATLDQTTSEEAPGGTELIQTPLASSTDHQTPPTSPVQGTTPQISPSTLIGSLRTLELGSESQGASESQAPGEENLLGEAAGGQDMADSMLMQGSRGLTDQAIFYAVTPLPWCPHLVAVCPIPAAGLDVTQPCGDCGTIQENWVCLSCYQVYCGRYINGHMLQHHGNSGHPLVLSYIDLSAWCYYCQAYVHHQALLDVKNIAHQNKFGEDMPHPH

[2] = Retention time of the compound; format: physicochemical

Sequence of Histone deacetylase 1 (Q13547 whole entry): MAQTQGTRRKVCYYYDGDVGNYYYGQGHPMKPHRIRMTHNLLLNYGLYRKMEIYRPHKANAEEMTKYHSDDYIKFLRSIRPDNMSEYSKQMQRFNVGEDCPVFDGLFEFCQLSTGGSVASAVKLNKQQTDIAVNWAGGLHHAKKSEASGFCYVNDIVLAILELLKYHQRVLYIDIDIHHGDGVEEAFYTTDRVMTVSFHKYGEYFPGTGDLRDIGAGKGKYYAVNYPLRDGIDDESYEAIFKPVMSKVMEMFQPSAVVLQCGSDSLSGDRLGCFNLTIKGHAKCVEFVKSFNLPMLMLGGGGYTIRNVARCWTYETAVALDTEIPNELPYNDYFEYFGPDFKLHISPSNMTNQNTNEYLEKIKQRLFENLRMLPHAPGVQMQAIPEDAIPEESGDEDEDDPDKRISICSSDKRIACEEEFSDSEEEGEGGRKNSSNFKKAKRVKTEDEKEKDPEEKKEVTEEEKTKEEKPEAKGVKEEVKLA

Row | SMILES | IC50 (Histone deacetylase 1) [nM] | IC50 (Histone deacetylase) [nM] | IC50 [1] [nM] | Retention_time [2] [min]
1 | CCCn1nc(-c2ccc(F)cc2)cc1C(=O)NCCCCCCS | > 10000 | > 10000 | > 10000 | 6.96
2 | O=C(NCCCCCCS)c1cc(-c2ccc(F)cc2)n(Cc2ccccc2)n1 | > 10000 | > 10000 | > 10000 | 5.49
3 | CCn1nc(-c2ccc(F)cc2)cc1C(=O)NCCCCCCS | > 10000 | > 10000 | 5000 | 5.79
4 | O=C(O)CCCn1nc(C(=O)NCCCCCCS)cc1-c1ccc(F)cc1 | 1800 | 810 | 450 | 6.9
5 | O=C(O)CCCn1nc(-c2ccc(F)cc2)cc1C(=O)NCCCCCCS | 130 | 80 | 90 | 13.54
6 | O=C(NCCCCCS)c1cc(-c2ccc(F)cc2)on1 | 2100 | 3000 | 1300 | 5
7 | O=C(CS)NCCCNC(=O)c1cc(-c2ccc(F)cc2)[nH]n1 | 1400 | 1500 | 880 | 3.25
8 | Cc1c(-c2ccc(F)cc2)nn(CCCO)c1C(=O)NCCCCCCS | > 10000 | > 10000 | 5000 | 3.71
9 | O=C(NCCCCCCS)c1cc(-c2ccc(F)cc2)n[nH]1 | 580 | 690 | 760 | 3.37
10 | O=C(NCCCCCCS)c1cc(-c2ccc(F)cc2)n(CCCCO)n1 | 440 | 540 | 220 | 3.15
11 | CCn1nc(C(=O)NCCCCCCS)cc1-c1ccc(F)cc1 | > 10000 | > 10000 | > 10000 | 4.29
12 | O=C(CCS)NCCCNC(=O)c1cc(-c2ccc(F)cc2)[nH]n1 | > 10000 | > 10000 | > 10000 | 2.66
13 | O=C(NCCCCCCS)c1cc(-c2ccc(F)cc2)nn1CCO | 330 | 690 | 910 | 2.86
14 | O=C(NCCCCCCS)c1cc(-c2ccc(F)cc2)nn1CCCCO | 250 | 170 | 140 | 3.66
15 | O=C(O)Cn1nc(C(=O)NCCCCCCS)cc1-c1ccc(F)cc1 | 1900 | 660 | 250 | 7.77
16 | O=C(NCCCCCCS)c1cc(-c2ccc(F)cc2)nn1CCCO | 1300 | 1200 | 470 | 3.81
17 | CCC(C)n1nc(-c2ccc(F)cc2)cc1C(=O)NCCCCCCS (centres undefined) | > 10000 | > 10000 | > 10000 | 8.4
18 | O=C(O)CCn1nc(C(=O)NCCCCCCS)cc1-c1ccc(F)cc1 | 2700 | 400 | 330 | 2.88
19 | O=C(CCS)NCCNC(=O)c1cc(-c2ccc(F)cc2)[nH]n1 | > 10000 | > 10000 | > 10000 | 2.74
20 | Cn1nc(-c2ccc(F)cc2)cc1C(=O)NCCCCCCS | > 10000 | 3200 | 2900 | 5.16
21 | CC(C)n1nc(-c2ccc(F)cc2)cc1C(=O)NCCCCCCS | > 10000 | > 10000 | 7400 | 7.17
22 | O=C(NCCCCCS)c1cc(-c2ccc(F)cc2)[nH]n1 | 2200 | 1900 | 1100 | 2.85

Row | SMILES | IC50 (Histone deacetylase 1) [nM] | IC50 (Histone deacetylase) [nM] | IC50 [1] [nM] | Retention_time [2] [min]
23 | CCCn1nc(C(=O)NCCCCCCS)cc1-c1ccc(F)cc1 | > 10000 | > 10000 | > 10000 | 5.2
24 | O=C(O)Cn1nc(-c2ccc(F)cc2)cc1C(=O)NCCCCCCS | 220 | 160 | 40 | 3.77
25 | Cn1nc(C(=O)NCCCCCCS)cc1-c1ccc(F)cc1 | > 10000 | > 10000 | 6900 | 3.86
26 | O=C(CS)NCCNC(=O)c1cc(-c2ccc(F)cc2)[nH]n1 | 2300 | 2200 | 1800 | 2.85
27 | Cc1c(-c2ccc(F)cc2)n[nH]c1C(=O)NCCCCCCS | > 10000 | > 10000 | 4400 | 4.08
28 | O=C(NCCCCS)c1cc(-c2ccc(F)cc2)on1 | > 10000 | > 10000 | 4900 | 4.24
29 | O=C(NCCS)c1cc(-c2ccc(F)cc2)on1 | > 10000 | > 10000 | 6500 | 2.91
30 | O=C(NCCCS)c1cc(-c2ccc(F)cc2)on1 | > 10000 | > 10000 | 5800 | 3.37
31 | Cc1c(-c2ccc(F)cc2)nn(C)c1C(=O)NCCCCCCS | > 10000 | > 10000 | > 10000 | 4.77
32 | O=C(O)CCn1nc(-c2ccc(F)cc2)cc1C(=O)NCCCCCCS | 650 | 300 | 210 | 2.99
33 | O=C(NCCCCCCS)c1cc(-c2ccc(F)cc2)n(CCO)n1 | 3300 | 2100 | 1400 | 3.13
34 | O=C(CS)NCCCCNC(=O)c1cc(-c2ccc(F)cc2)[nH]n1 | > 10000 | 8600 | 2100 | 2.94
35 | CCC(C)n1nc(C(=O)NCCCCCCS)cc1-c1ccc(F)cc1 (centres undefined) | > 10000 | > 10000 | > 10000 | 5.87
36 | CCCCn1nc(-c2ccc(F)cc2)cc1C(=O)NCCCCCCS | > 10000 | > 10000 | > 10000 | 11.92
37 | O=C(NCCCCCCS)c1cc(-c2ccc(F)cc2)on1 | 850 | 980 | 880 | 5.67
38 | CC(C)n1nc(C(=O)NCCCCCCS)cc1-c1ccc(F)cc1 | > 10000 | > 10000 | > 10000 | 4.93
39 | O=C(CCS)NCCCCNC(=O)c1cc(-c2ccc(F)cc2)[nH]n1 | > 10000 | > 10000 | > 10000 | 2.54
40 | CCCCn1nc(C(=O)NCCCCCCS)cc1-c1ccc(F)cc1 | > 10000 | > 10000 | > 10000 | 6.79
41 | O=C(NCCCCCCS)c1cc(-c2ccc(F)cc2)n(CCCO)n1 | 3600 | 3100 | 850 | 3.19
42 | O=C(NCCCCCCS)c1cc(-c2ccc(F)cc2)nn1Cc1ccccc1 | > 10000 | > 10000 | > 10000 | 7.52
43 | C/C=C1\NC(=O)[C@H]2CSSCC/C=C/[C@H](CC(=O)N[C@H](C(C)C)C(=O)N2)OC(=O)[C@H](C(C)C)NC1=O [ROMIDEPSIN] | 140 | – | – | –
